From PMC3269340, “Pharmacokinetics of memantine in rats and mice” (PLoS Currents, 2012)

Target: T1, human PEPT2 (Homo sapiens, UniProt Q16348)
T1 construct: expressed in transfected cells; host or cells: CHO cells
T1 sequence (Q16348 1-729): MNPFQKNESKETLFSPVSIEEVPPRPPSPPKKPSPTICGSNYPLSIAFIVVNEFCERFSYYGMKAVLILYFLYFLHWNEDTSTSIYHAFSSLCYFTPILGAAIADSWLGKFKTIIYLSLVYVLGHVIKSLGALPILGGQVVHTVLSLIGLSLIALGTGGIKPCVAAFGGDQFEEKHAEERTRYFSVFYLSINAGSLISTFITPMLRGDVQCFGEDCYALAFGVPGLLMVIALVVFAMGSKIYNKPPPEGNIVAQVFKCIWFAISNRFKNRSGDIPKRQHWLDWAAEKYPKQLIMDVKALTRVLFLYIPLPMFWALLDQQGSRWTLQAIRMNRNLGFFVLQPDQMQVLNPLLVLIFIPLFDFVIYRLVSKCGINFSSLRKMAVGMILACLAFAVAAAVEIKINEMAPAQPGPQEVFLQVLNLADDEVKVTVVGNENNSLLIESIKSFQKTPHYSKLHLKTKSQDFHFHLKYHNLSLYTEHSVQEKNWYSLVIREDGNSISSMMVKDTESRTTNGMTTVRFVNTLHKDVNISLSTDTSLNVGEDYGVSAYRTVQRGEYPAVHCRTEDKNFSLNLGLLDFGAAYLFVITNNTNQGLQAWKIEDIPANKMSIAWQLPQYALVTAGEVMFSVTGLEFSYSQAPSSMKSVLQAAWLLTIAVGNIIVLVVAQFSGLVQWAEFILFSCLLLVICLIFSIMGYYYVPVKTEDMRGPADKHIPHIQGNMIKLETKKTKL
Test: Direct uptake transporter assay, PEPT2
Type: in vitro ADME
Settings: for Accumulation in transporter transfected cells: PEPT2-transfected cells; for Accumulation in parental cells: parental CHO cells (PEPT2 line)
Procedure: To determine whether memantine is a substrate of the human OATP2B1 (OATP-B), OCT1, OCT2, OAT3, PEPT1, PEPT2 uptake transporters.
The potential for memantine to be a substrate of an uptake transporter was determined directly by comparing the uptake of memantine into cells expressing the selected uptake transporter with its uptake into control cells. Memantine was added to transporter-expressing and control cells at two concentrations (PEPT1 and PEPT2 100 and 300 µM, OCT1 and OCT2 50 and 100 µM, OATP2B1 100 and 300 µM), and incubated with cells for 2 and 20 min at 37±1°C (75 µL final incubation volume). The final concentrations of memantine were selected to be the IC50 of reporter substrate transport inhibition established in the indirect transporter assay and one order of magnitude lower. Incubations were carried out as described in the indirect uptake transporter assays. The concentration of memantine was determined by LC-MS/MS.

CC12CC3CC(C)(C1)CC(N)(C3)C2 [memantine]
Highest Fold Activation (PEPT2, 100µM, 20 min): 0.97 (100µM, 20 min)
Accumulation in transporter transfected cells (2 min, 100 µM): 937 pmol/mg
Accumulation in transporter transfected cells (2 min, 300 µM): 1871 pmol/mg
Accumulation in transporter transfected cells (20 min, 100 µM): 897 pmol/mg
Accumulation in transporter transfected cells (20 min, 300 µM): 1759 pmol/mg
substrate of PEPT2 uptake transporter (no preferential accumulation in transfected over parental cells): not a substrate
Accumulation in parental cells (2 min, 100 µM): 965 pmol/mg
Accumulation in parental cells (2 min, 300 µM): 2011 pmol/mg
Accumulation in parental cells (20 min, 100 µM): 1219 pmol/mg
Accumulation in parental cells (20 min, 300 µM): 2056 pmol/mg
